# Experimental data: ChEMBL document CHEMBL1201862, “PubChem BioAssay data set” (2004)
#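 Five concentrations, 48 hours, 96-well plates. Here, GI50 denotes the concentration required for 50% inhibition of growth.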 Calls of active or inactive are those of the source. No stated cut-off is given here; in the data, active = GI50 up to about 1.1 µM and inactive = higher. Where a SMILES comes first, the peptide text is derived from it.
# Experiments:
# [1] = system: BT-549; assay: inhibition of tumour cell growth, NCI panel, 48 h
# [2] = system: T47D; assay: inhibition of tumour cell growth, NCI panel, 48 h
Compound,GI50 [1],GI50 [2]
CC(=O)Nc1cc2ccc(=O)oc2cc1Cl,> 100 µM (inactive),> 100 µM (inactive)
C=C1CC[C@@H](CCC2CCC3(OC2)O[C@]2(O)CC[C@@]3(C)OC2(C)C)C(C)(C)[C@H]1C/C=C1\CCOC1=O (some centres undefined),11.7 µM (inactive),–
NN(CC(=O)O)CC(=O)O,> 100 µM (inactive),> 100 µM (inactive)
Cn1c(-c2ccco2)ccc1-c1ccc(C=O)o1,95.7 µM (inactive),38.1 µM (inactive)
C/C(Cl)=N/OC(=O)Nc1ccc(F)c([N+](=O)[O-])c1,14.1 µM (inactive),–
CC(=O)OCC1OC(n2cnc3nc(Br)[nH]c(=O)c32)C(OC(C)=O)C1OC(C)=O (centres undefined),> 100 µM (inactive),> 100 µM (inactive)
Cc1cc(-c2nc3cc(F)ccc3s2)ccc1NC(=O)[C@@H](N)CCCCN,12.9 µM (inactive),< 0.0138 µM (active)
CC(=O)C(=N\Nc1ccc(Cl)cc1)/C(C)=N/c1ccc(C)cc1,51.4 µM (inactive),38.5 µM (inactive)
COc1cc2c(c3c1c(=O)c1ccccc1n3C)C=CC1(CCCCC1)O2,4.84 µM (inactive),4.41 µM (inactive)
NC(=S)N/N=C\c1nccc2ccccc12,0.424 µM (active),2.69 µM (inactive)
O=C1c2c[nH]nc2C(c2ccccc2)N1c1ccccc1 (centres undefined),> 10 µM (inactive),> 10 µM (inactive)
CC(=NNC(=S)Nc1cccc(C)c1)c1cccc(C(C)=NNC(=S)Nc2cccc(C)c2)n1,–,30.8 µM (inactive)
COc1cc2c(c(OC)c1OC)C(=O)[C@@H]1[C@H]2N1C(N)=O,–,> 100 µM (inactive)
CCN(CC)CCC(=O)c1ccc(Oc2ccc(F)cc2)cc1,18.3 µM (inactive),20 µM (inactive)
NCCCCC(N)C(=O)N1CCN(c2nc(N3CCCC3)c3nc(Cl)c(NCc4ccccc4)nc3n2)CC1 (centres undefined),18.5 µM (inactive),–
COc1ccc(OC)c2c(C)ccnc12,27.4 µM (inactive),22.5 µM (inactive)
NCCN1C(=O)c2ccccc2C1(O)c1ccc(Cl)cc1 (centres undefined),42.6 µM (inactive),19.4 µM (inactive)

Compound,GI50 [1],GI50 [2]
COc1cc(/C=C2\N=C(c3ccccc3)N(/N=C/c3cc4cc(C)ccc4nc3Cl)C2=O)ccc1O,63.8 µM (inactive),56.1 µM (inactive)
CC1(C)COC(c2cccc(C(=O)c3ccccc3)c2)=N1,–,25.7 µM (inactive)
CC(=O)O[C@H]1C[C@H]2C(=S)Nc3ccccc3C(=S)N2C1,> 100 µM (inactive),> 100 µM (inactive)
COC1=C(N2CC2)C(=O)c2nc3n(c2C1=O)CCC3,1.15 µM (inactive),1.79 µM (inactive)
CC(OC(=O)NCn1cc(-c2ccccc2)nn1)c1ccccc1 (centres undefined),32.4 µM (inactive),–
O=C1CCCC(=O)N1n1c(Cc2ccccc2)n[nH]c1=O,> 100 µM (inactive),> 100 µM (inactive)
COc1ccc(/N=N/c2c(C)c(C#N)c(=S)n(C3OC(COC(C)=O)C(OC(C)=O)C(OC(C)=O)C3OC(C)=O)c2C)cc1 (centres undefined),> 100 µM (inactive),> 100 µM (inactive)
NC(=O)C1CCCN1C(=O)C(N)Cc1ccccc1 (stereo not drawn) (H-Phe-Pro-NH2; configuration not given here),–,> 100 µM (inactive)
CNC(=O)CCCN(C)C(=O)CCCCC(=O)N(C)C,> 62.8 µM (inactive),35 µM (inactive)
COc1cc2c(cc1-c1coc3cc(O)ccc3c1=O)OCO2 [CUNEATIN],19.5 µM (inactive),29.6 µM (inactive)
CC(=O)OCC1OC(Sc2nc(-c3ccccc3)c(C#N)c(=O)n2C2OC(COC(C)=O)C(OC(C)=O)C(OC(C)=O)C2OC(C)=O)C(OC(C)=O)C(OC(C)=O)C1OC(C)=O (centres undefined),> 100 µM (inactive),> 100 µM (inactive)
CCOC(=O)c1nnsc1NN,> 100 µM (inactive),–
OCCN(CCO)c1ccc2c(c1)Cc1ccccc1-2,–,13.5 µM (inactive)
CC(=O)OC12c3ccccc3-c3ccccc3C1C(C(=O)O)C2(Cl)C(=O)O (centres undefined),–,> 10 µM (inactive)
O=C1/C(=C/c2cccc(Br)c2)Cc2ccccc21,34.5 µM (inactive),–
CCOc1ccc(/C=C2\N=C(c3ccccc3)OC2=O)cc1,> 100 µM (inactive),–
COc1cccc(N(CN2CC=CC2=O)C(C)=O)c1,–,> 100 µM (inactive)
